Reference: PMC4104029, “Mechanism of Action of Compound-13: An α1-Selective Small Molecule Activator of AMPK” (Chemistry & Biology, 2014)

Target: T1, AMPKα1β1γ2 with γ2 R531G (Homo sapiens, UniProt Q13131+Q9UGJ0, R531G)
T1 construct: made in house; host or cells: COS1 cells (transient transfection, FLAG-M2 purification)
Test: AMPKα1β1γ2 mutagenesis, activation assay
Assay type: biochemical
Settings: 1 μM C2; complex purified from COS1 cells
Protocol: Figure 2 C2 Is a Partial Agonist of α2 Complexes and Selectively Protects α1 Complexes against Dephosphorylation by PP2C (A and B) Recombinant AMPKα1β1γ1 (A) or AMPKα2β1γ1 (B) was assayed in the presence of AMP (30 μM) and increasing concentrations of C2 (0–20 μM). Results are expressed as fold increase in activity relative to controls without ligand and represent the mean ± SD for three independent experiments. (C and D) The effects of C2 and AMP on dephosphorylation and inactivation of AMPKα1β1γ1 (C) and α2β1γ1 (D) by PP2Cα (present in all assay conditions). Results are expressed as a percentage of control reactions performed in the absence of Mg^2+ and represent the mean ± SD of three independent experiments. Representative blots of pT172 and total AMPKα are shown below the bar charts. […] Results are expressed as the fold increase in activity relative to controls in the absence of compound and represent the mean ± SD for three independent experiments. […]
Competitive elution of AMPKγ2 from ATP-Sepharose. […] Resin was pelleted at low speed and the resulting supernatant analysed for the presence of AMPKγ2 by SDS-PAGE and staining with colloidal Coomassie (Generon). […]

T1 sequence (Q13131 whole entry): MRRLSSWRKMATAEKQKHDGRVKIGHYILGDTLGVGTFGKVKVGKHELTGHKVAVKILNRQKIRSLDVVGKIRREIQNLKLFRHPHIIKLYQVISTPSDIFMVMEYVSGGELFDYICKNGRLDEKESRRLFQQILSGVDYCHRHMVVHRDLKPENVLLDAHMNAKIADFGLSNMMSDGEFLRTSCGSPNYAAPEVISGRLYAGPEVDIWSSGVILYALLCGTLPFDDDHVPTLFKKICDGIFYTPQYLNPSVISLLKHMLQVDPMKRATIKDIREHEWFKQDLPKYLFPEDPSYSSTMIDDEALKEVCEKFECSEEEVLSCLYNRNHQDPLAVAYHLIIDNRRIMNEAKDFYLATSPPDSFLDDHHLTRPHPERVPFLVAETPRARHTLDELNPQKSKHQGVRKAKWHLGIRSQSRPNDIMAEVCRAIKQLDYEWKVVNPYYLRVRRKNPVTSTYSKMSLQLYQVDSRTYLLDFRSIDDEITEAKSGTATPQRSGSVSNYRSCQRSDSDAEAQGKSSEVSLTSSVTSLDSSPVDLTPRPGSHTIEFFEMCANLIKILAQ
T1 sequence (Q9Y478 whole entry partner): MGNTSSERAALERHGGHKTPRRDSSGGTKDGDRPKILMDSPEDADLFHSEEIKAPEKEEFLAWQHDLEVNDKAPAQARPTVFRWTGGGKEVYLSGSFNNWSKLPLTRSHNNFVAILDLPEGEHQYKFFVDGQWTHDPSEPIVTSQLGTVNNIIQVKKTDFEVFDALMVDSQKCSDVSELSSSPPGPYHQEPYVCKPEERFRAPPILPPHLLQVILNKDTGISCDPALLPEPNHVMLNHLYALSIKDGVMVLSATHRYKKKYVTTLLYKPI
T1 sequence (Q9UGJ0 whole entry R531G): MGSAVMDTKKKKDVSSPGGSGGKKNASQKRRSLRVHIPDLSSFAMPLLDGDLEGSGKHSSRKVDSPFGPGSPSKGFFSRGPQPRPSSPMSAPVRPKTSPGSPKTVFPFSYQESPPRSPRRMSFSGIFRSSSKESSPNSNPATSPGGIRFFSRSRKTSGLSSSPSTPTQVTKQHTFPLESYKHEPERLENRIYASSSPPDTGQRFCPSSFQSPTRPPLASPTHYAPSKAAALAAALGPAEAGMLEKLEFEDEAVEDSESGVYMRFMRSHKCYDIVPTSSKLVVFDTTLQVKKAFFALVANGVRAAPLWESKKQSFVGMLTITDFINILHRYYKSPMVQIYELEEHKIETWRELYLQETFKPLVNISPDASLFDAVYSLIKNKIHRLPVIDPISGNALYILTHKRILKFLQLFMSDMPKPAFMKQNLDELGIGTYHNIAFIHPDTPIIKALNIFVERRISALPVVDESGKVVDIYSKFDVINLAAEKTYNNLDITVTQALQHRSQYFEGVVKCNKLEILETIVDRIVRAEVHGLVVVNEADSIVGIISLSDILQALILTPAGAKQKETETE

Structure (SMILES): O=P(O)(O)c1ccc(-c2cc(O)on2)o1 [Compound C2, 5-(5-hydroxyl-isoxazol-3-yl)-furan-2-phosphonic acid]
- stimulation of mutant complex: failed to stimulate
